Experimental data published in PubChem BioAssay (NCI).
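Protocol summary: plate cells (96-well), add compound at 5 concentrations, incubate 48 h, interpolate endpoints linearly. TGI marks complete inhibition of growth.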

How the values were obtained:
Assay in all cases: growth of human tumour cells (NCI), 48 h
MALME-3M melanoma = tested on: MALME-3M melanoma
A549 NSCLC = tested on: A549 NSCLC
KM20L2 colon = tested on: KM20L2 colon
UACC-62 melanoma = tested on: UACC-62 melanoma
OVCAR-8 ovarian = tested on: OVCAR-8 ovarian
IGROV1 ovarian = tested on: IGROV1 ovarian
U251 CNS = tested on: U251 CNS
SK-OV-3 ovarian = tested on: SK-OV-3 ovarian
M19-MEL melanoma = tested on: M19-MEL melanoma
MDA-N = tested on: MDA-N
HL-60(TB) leukemia = tested on: HL-60(TB) leukemia
DMS 273 small cell lung = tested on: DMS 273 small cell lung
SF-295 CNS = tested on: SF-295 CNS
NCI-H23 lung = tested on: NCI-H23 lung
ACHN renal = tested on: ACHN renal
DMS 114 small cell lung = tested on: DMS 114 small cell lung
HS 578T breast = tested on: HS 578T breast
SNB-75 CNS = tested on: SNB-75 CNS
SK-MEL-5 melanoma = tested on: SK-MEL-5 melanoma
HOP-62 NSCLC = tested on: HOP-62 NSCLC
HOP-92 NSCLC = tested on: HOP-92 NSCLC
RPMI-8226 leukemia = tested on: RPMI-8226 leukemia
UACC-257 melanoma = tested on: UACC-257 melanoma
SK-MEL-28 melanoma = tested on: SK-MEL-28 melanoma
T-47D breast = tested on: T-47D breast
CCRF-CEM leukemia = tested on: CCRF-CEM leukemia
HT29 colon = tested on: HT29 colon
CAKI-1 renal = tested on: CAKI-1 renal
A498 renal = tested on: A498 renal
RXF 393 renal = tested on: RXF 393 renal
BT-549 breast = tested on: BT-549 breast
SR leukemia = tested on: SR leukemia
NCI/ADR-RES ovarian = tested on: NCI/ADR-RES ovarian
TK-10 renal = tested on: TK-10 renal
SW-620 colon = tested on: SW-620 colon
EKVX NSCLC = tested on: EKVX NSCLC
UO-31 renal = tested on: UO-31 renal
HCT-116 colon = tested on: HCT-116 colon
MOLT-4 leukemia = tested on: MOLT-4 leukemia
SK-MEL-2 melanoma = tested on: SK-MEL-2 melanoma
M14 melanoma = tested on: M14 melanoma
OVCAR-5 ovarian = tested on: OVCAR-5 ovarian
LXFL 529 NSCLC = tested on: LXFL 529 NSCLC
SN12C renal = tested on: SN12C renal
SNB-19 CNS = tested on: SNB-19 CNS
NCI-H460 lung = tested on: NCI-H460 lung
NCI-H226 lung = tested on: NCI-H226 lung
SF-268 CNS = tested on: SF-268 CNS
OVCAR-4 ovarian = tested on: OVCAR-4 ovarian
786-0 renal = tested on: 786-0 renal
HCC-2998 colon = tested on: HCC-2998 colon
HCT-15 colon = tested on: HCT-15 colon
OVCAR-3 ovarian = tested on: OVCAR-3 ovarian
NCI-H522 lung = tested on: NCI-H522 lung
K-562 leukemia = tested on: K-562 leukemia
MDA-MB-435 = tested on: MDA-MB-435
SF-539 CNS = tested on: SF-539 CNS
COLO 205 colon = tested on: COLO 205 colon
SNB-78 CNS = tested on: SNB-78 CNS
KM12 colon = tested on: KM12 colon
PC-3 prostate = tested on: PC-3 prostate
DU-145 prostate = tested on: DU-145 prostate
MCF7 breast = tested on: MCF7 breast
LOX IMVI melanoma = tested on: LOX IMVI melanoma
MDA-MB-231 breast = tested on: MDA-MB-231 breast
DLD-1 colon = tested on: DLD-1 colon
XF 498 CNS = tested on: XF 498 CNS

In the case of `CC(C)n1c2c([n+](C)c1/C=C/c1ccccc1)C(=O)c1ccccc1C2=O`, the TGI (MALME-3M melanoma) was 0.248 µM, the TGI (A549 NSCLC) was 4.68 µM and the TGI (KM20L2 colon) was 1.31 µM. It also gave a TGI (UACC-62 melanoma) of 0.644 µM, a TGI (OVCAR-8 ovarian) of 1.96 µM and a TGI (IGROV1 ovarian) of 0.0688 µM. The TGI (U251 CNS) was 0.738 µM, the TGI (SK-OV-3 ovarian) was 1.07 µM and the TGI (M19-MEL melanoma) was 0.321 µM. For the same compound, the TGI (MDA-N) was 0.686 µM, the TGI (HL-60(TB) leukemia) was 1.14 µM and the TGI (DMS 273 small cell lung) was 0.341 µM. It also gave a TGI (SF-295 CNS) of 2.52 µM, a TGI (NCI-H23 lung) of 0.412 µM and a TGI (ACHN renal) of 10.9 µM. The TGI (DMS 114 small cell lung) was 0.0439 µM, the TGI (HS 578T breast) was 7.8 µM and the TGI (SNB-75 CNS) was 1.48 µM. For the same compound, the TGI (SK-MEL-5 melanoma) was 0.252 µM, the TGI (HOP-62 NSCLC) was 1.61 µM and the TGI (HOP-92 NSCLC) was 1.48 µM. For the same compound, the TGI (RPMI-8226 leukemia) was 8.96 µM, the TGI (UACC-257 melanoma) was 0.123 µM and the TGI (SK-MEL-28 melanoma) was 1.6 µM. It also gave a TGI (T-47D breast) of 0.61 µM, a TGI (CCRF-CEM leukemia) of 10.9 µM and a TGI (HT29 colon) of 2.18 µM. The TGI (CAKI-1 renal) was 12.4 µM, the TGI (A498 renal) was 2.76 µM and the TGI (RXF 393 renal) was 2.19 µM. For the same compound, the TGI (BT-549 breast) was 0.667 µM, the TGI (SR leukemia) was > 21 µM and the TGI (NCI/ADR-RES ovarian) was > 100 µM. For the same compound, the TGI (TK-10 renal) was 2.39 µM, the TGI (SW-620 colon) was 1.21 µM and the TGI (EKVX NSCLC) was 1.25 µM. For the same compound, the TGI (UO-31 renal) was 10.1 µM, the TGI (HCT-116 colon) was 0.433 µM and the TGI (MOLT-4 leukemia) was 0.745 µM. For the same compound, the TGI (SK-MEL-2 melanoma) was 0.48 µM, the TGI (M14 melanoma) was 1.08 µM and the TGI (OVCAR-5 ovarian) was 1.28 µM. The TGI (LXFL 529 NSCLC) was 0.788 µM, the TGI (SN12C renal) was 0.169 µM and the TGI (SNB-19 CNS) was 0.784 µM. For the same compound, the TGI (NCI-H460 lung) was 2.43 µM, the TGI (NCI-H226 lung) was 2.2 µM and the TGI (SF-268 CNS) was 1.01 µM. The TGI (OVCAR-4 ovarian) was 1 µM, the TGI (786-0 renal) was 8.11 µM and the TGI (HCC-2998 colon) was 2.06 µM. For the same compound, the TGI (HCT-15 colon) was 23.9 µM, the TGI (OVCAR-3 ovarian) was 0.0289 µM and the TGI (NCI-H522 lung) was 0.15 µM. The TGI (K-562 leukemia) was 9.61 µM, the TGI (MDA-MB-435) was 0.547 µM and the TGI (SF-539 CNS) was 0.363 µM. It also gave a TGI (COLO 205 colon) of 0.0993 µM, a TGI (SNB-78 CNS) of 0.413 µM and a TGI (KM12 colon) of 0.975 µM. For the same compound, the TGI (PC-3 prostate) was 0.726 µM, the TGI (DU-145 prostate) was 0.948 µM and the TGI (MCF7 breast) was 0.214 µM. The TGI (LOX IMVI melanoma) was 0.971 µM, the TGI (MDA-MB-231 breast) was 0.884 µM and the TGI (DLD-1 colon) was 3.79 µM.
For `COP1(=O)Oc2ccccc2C(=O)C(C(F)(F)F)(C(F)(F)F)O1` (centres undefined), the TGI (A549 NSCLC) was > 100 µM, the TGI (KM20L2 colon) was > 100 µM and the TGI (UACC-62 melanoma) was > 100 µM. For the same compound, the TGI (OVCAR-8 ovarian) was > 100 µM, the TGI (IGROV1 ovarian) was > 100 µM and the TGI (U251 CNS) was > 100 µM. For the same compound, the TGI (SK-OV-3 ovarian) was > 100 µM, the TGI (M19-MEL melanoma) was > 100 µM and the TGI (HL-60(TB) leukemia) was > 100 µM. The TGI (DMS 273 small cell lung) was > 100 µM, the TGI (SF-295 CNS) was > 100 µM and the TGI (NCI-H23 lung) was > 100 µM. The TGI (ACHN renal) was > 100 µM, the TGI (DMS 114 small cell lung) was > 100 µM and the TGI (SNB-75 CNS) was > 100 µM. The TGI (SK-MEL-5 melanoma) was > 100 µM, the TGI (HOP-62 NSCLC) was > 100 µM and the TGI (HOP-92 NSCLC) was > 100 µM. For the same compound, the TGI (RPMI-8226 leukemia) was > 100 µM, the TGI (UACC-257 melanoma) was > 100 µM and the TGI (SK-MEL-28 melanoma) was > 100 µM. The TGI (CCRF-CEM leukemia) was > 100 µM, the TGI (HT29 colon) was > 100 µM and the TGI (CAKI-1 renal) was > 100 µM. For the same compound, the TGI (XF 498 CNS) was > 100 µM, the TGI (A498 renal) was > 100 µM and the TGI (RXF 393 renal) was > 100 µM. For the same compound, the TGI (SR leukemia) was > 100 µM, the TGI (TK-10 renal) was > 100 µM and the TGI (SW-620 colon) was > 100 µM. For the same compound, the TGI (EKVX NSCLC) was > 100 µM, the TGI (UO-31 renal) was > 100 µM and the TGI (HCT-116 colon) was > 100 µM. For the same compound, the TGI (MOLT-4 leukemia) was > 100 µM, the TGI (SK-MEL-2 melanoma) was > 100 µM and the TGI (M14 melanoma) was > 100 µM. The TGI (OVCAR-5 ovarian) was > 100 µM, the TGI (LXFL 529 NSCLC) was > 100 µM and the TGI (SN12C renal) was > 100 µM. For the same compound, the TGI (SNB-19 CNS) was > 100 µM, the TGI (NCI-H460 lung) was > 100 µM and the TGI (SF-268 CNS) was > 100 µM. The TGI (OVCAR-4 ovarian) was > 100 µM, the TGI (786-0 renal) was > 100 µM and the TGI (HCC-2998 colon) was > 100 µM. The TGI (HCT-15 colon) was > 100 µM, the TGI (NCI-H522 lung) was > 100 µM and the TGI (K-562 leukemia) was > 100 µM. The TGI (SF-539 CNS) was > 100 µM, the TGI (COLO 205 colon) was > 100 µM and the TGI (KM12 colon) was > 100 µM. The TGI (LOX IMVI melanoma) was > 100 µM and the TGI (DLD-1 colon) was > 100 µM.
